In patent US20050004018A1, “Use of antitumoral compound in cancer therapy” (priority 2001, published 2005):
Like-named read-outs stand apart in the source and are kept apart here.

Tests used:
cancer patients [1] = conditions: cited from earlier work
rats = conditions: single or fractionated dose, intravenous; cited from earlier work
dogs = conditions: cited from earlier work
mice = conditions: single or fractionated dose, intravenous; cited from earlier work
cancer patients [2] = conditions: cited from earlier work; remark: listed apart in the source
canine progenitor cells = conditions: cited from earlier work
cancer patients [3] = conditions: 1-hr intravenous infusion every 3 weeks; cited from earlier work
cancer patients [4] = assay: phase II programme, 24 hour every 3 weeks schedule; format: in vivo, human
Description: (§1) Two schedules (24 hour every 3 weeks and 3 hour every 3 weeks) reached the phase II programme. The phase II programme confirmed the activity against soft tissue sarcoma and ovarian cancer. However, the recommended starting dose for the 3 hour schedule had to be reduced because of serious toxicity. The recommended dose for the 24 hour schedule was 1500 μg /m^2 and the recommended dose for the 3 hour schedule is at present 1300 μg/m^2.
The 3 hour every three weeks schedule has the signifcant advantage of being more confortable for the patient because it reduces the time being spent at the hospital for infusion and monitoring, in particular avoiding overnight stay.

cancer patients [5] = conditions: cited from earlier work; remark: listed apart in the source
human progenitor cells = conditions: cited from earlier work
cancer patients [6] = conditions: cited from earlier work; remark: listed apart in the source
cancer patients [7] = assay: phase II programme, 3 hour every 3 weeks schedule; format: in vivo, human
Description: as §1
Serious increases of transaminases (grade 3-4) were more frequent with the 3 hour schedule than with the 24 hour schedule. […] This toxicity has improved with the amendment that reduces the starting dose to 1300 (grade 3 and 4 ALT in 38% and 8.5% of patients), although it would be desirable to reduce it further. Cholestasis is less severe and less frequent observing grade 1, 2 and 3 alkaline phosphatase in 50.4%, 6.5% and 1.7% (leading to an overall 58.6% that compares similarly with 57.7% over 24 hours) of patients. […] An infrequent but important toxicity was the renal toxicity, represented by creatinine abnormalities, that is also higher than in the 24 hour schedule. […]

[8] = 1 hr infusion days 1-5 every 3 weeks
[9] = 24 hour infusion, worst grade per patient
[10] = 24 h schedule every three weeks
[11] = Per patient (24 h), number (percent)
[12] = % of treatment courses at the RD
[13] = 3 hour infusion, worst grade per patient
[14] = Per patient (3 h), number (percent)
[15] = starting dose reduced to 1300, % of patients

ecteinascidin 743 [ET-743]
MTD (cancer patients [1]; [8]): 380 μg/m^2/day | RD (cancer patients [1]; [8]): 325 μg/m^2/day | cycles delayed (cancer patients [1]; at 325 μg/m^2/day (RD)): 59% | median day of recovery to grade 1 for neutropenia (cancer patients [1]; at 325 μg/m^2/day (RD)): 28 days | patients who developed DLT (cancer patients [1]; at 380 μg/m^2/day (MTD)): 3 patients | Reversible grade 3 transaminases, cycles (cancer patients [1]; at the recommended dose, % of cycles): 14% | Reversible grade 3 transaminases, patients (cancer patients [1]; at the recommended dose, % of patients): 31% | toxicity (rats): reversible hematological and hepatic toxicity | further toxicity in dogs (dogs; following administration): vomiting and diarrhoea | toxicity (dogs; single or fractionated dose, intravenous, dogs): reversible hematological and hepatic toxicity | toxicity (mice): reversible hematological and hepatic toxicity | MTD (cancer patients [2]; 72 hr infusion every 3 weeks): 1200 μg/M^2 | RD (cancer patients [2]; 72 hr infusion every 3 weeks): 1050 μg/M^2 | reversible grade 4 transaminases elevation (cancer patients [2]; at 1200 μg/M^2 (MTD)): 2 out of 9 | grade 3 hypertransaminasemia (cancer patients [2]; at the RD (1050 μg/M^2), % of patients): 50% | grade 4 hypertransaminasemia (cancer patients [2]; at the RD (1050 μg/M^2)): there was not any grade 4 hypertransaminasemia | sensitivity of progenitor cells (canine progenitor cells): equal sensitivity of erythropoid and myeloid cells | maximum tolerated dose (MTD) (cancer patients [3]): 1100 μg/m^2 | Alk Phosph, NCI-CTC Grade 1 (cancer patients [4]; [9]): 149 (46.7) Number of patients (%) | Alk Phosph, NCI-CTC Grade 2 (cancer patients [4]; [9]): 29 (9.1) Number of patients (%) | Alk Phosph, NCI-CTC Grade 3 (cancer patients [4]; [9]): 6 (1.9) Number of patients (%) | Bilirubin, NCI-CTC Grade 1 (cancer patients [4]; [9]): 49 (15.3) Number of patients (%) | Bilirubin, NCI-CTC Grade 2 (cancer patients [4]; [9]): 23 (6.9) Number of patients (%) | Bilirubin, NCI-CTC Grade 3 (cancer patients [4]; [9]): 4 (1.3) Number of patients (%) | Gamma GT, NCI-CTC Grade 1 (cancer patients [4]; [9]): 25 (22.9) Number of patients (%) | Gamma GT, NCI-CTC Grade 2 (cancer patients [4]; [9]): 29 (26.6) Number of patients (%) | Gamma GT, NCI-CTC Grade 3 (cancer patients [4]; [9]): 32 (29.4) Number of patients (%) | Gamma GT, NCI-CTC Grade 4 (cancer patients [4]; [9]): 2 (1.8) Number of patients (%) | Hemoglobin, NCI-CTC Grade 0-1 (cancer patients [4]; [9]): 165 (51.6) Number of patients (%) | Hemoglobin, NCI-CTC Grade 2 (cancer patients [4]; [9]): 111 (34.7) Number of patients (%) | Hemoglobin, NCI-CTC Grade 3 (cancer patients [4]; [9]): 33 (10.3) Number of patients (%) | Hemoglobin, NCI-CTC Grade 4 (cancer patients [4]; [9]): 11 (3.4) Number of patients (%) | Neutrophils, NCI-CTC Grade 0-1 (cancer patients [4]; [9]): 103 (32.3) Number of patients (%) | Neutrophils, NCI-CTC Grade 2 (cancer patients [4]; [9]): 54 (16.9) Number of patients (%) | Neutrophils, NCI-CTC Grade 3 (cancer patients [4]; [9]): 92 (28.8) Number of patients (%) | Neutrophils, NCI-CTC Grade 4 (cancer patients [4]; [9]): 70 (21.9) Number of patients (%) | Platelets, NCI-CTC Grade 0-1 (cancer patients [4]; [9]): 260 (81.5) Number of patients (%) | Platelets, NCI-CTC Grade 2 (cancer patients [4]; [9]): 17 (5.3) Number of patients (%) | Platelets, NCI-CTC Grade 3 (cancer patients [4]; [9]): 35 (11.0) Number of patients (%) | Platelets, NCI-CTC Grade 4 (cancer patients [4]; [9]): 7 (2.2) Number of patients (%) | SGOT/AST, NCI-CTC Grade 1 (cancer patients [4]; [9]): 74 (23.2) Number of patients (%) | SGOT/AST, NCI-CTC Grade 2 (cancer patients [4]; [9]): 88 (27.6) Number of patients (%) | SGOT/AST, NCI-CTC Grade 3 (cancer patients [4]; [9]): 120 (37.6) Number of patients (%) | SGOT/AST, NCI-CTC Grade 4 (cancer patients [4]; [9]): 16 (5.0) Number of patients (%) | SGPT/ALT, NCI-CTC Grade 1 (cancer patients [4]; [9]): 62 (19.4) Number of patients (%) | SGPT/ALT, NCI-CTC Grade 2 (cancer patients [4]; [9]): 83 (25.9) Number of patients (%) | SGPT/ALT, NCI-CTC Grade 3 (cancer patients [4]; [9]): 127 (39.7) Number of patients (%) | SGPT/ALT, NCI-CTC Grade 4 (cancer patients [4]; [9]): 30 (9.4) Number of patients (%) | recommended dose (cancer patients [4]; 24 hour schedule, phase II): 1500 μg /m^2 | Grade 3-4 ALT (cancer patients [4]; [10]): 49.1% | Grade 3-4 Bilirubin (cancer patients [4]; [10]): 1.3% | Grade 3-4 Creatinine (cancer patients [4]; [10]): 0.7% | Grade 3-4 Creatinine Kinase (cancer patients [4]; [10]): 2.2% | Grade 3-4 Hemoglobin (cancer patients [4]; [10]): 13.7% | Grade 3-4 Neutrophils (cancer patients [4]; [10]): 50.7% | Grade 3-4 Platelets (cancer patients [4]; [10]): 13.2% | Creatinine abnormalities, NCI-CTC Grade 1 (cancer patients [4]; [11]): 76 (23.9) | Creatinine abnormalities, NCI-CTC Grade 2 (cancer patients [4]; [11]): 19 (6.0) | Creatinine abnormalities, NCI-CTC Grade 3 (cancer patients [4]; [11]): 3 (0.9) | Creatinine abnormalities, NCI-CTC Grade 4 (cancer patients [4]; [11]): 2 (0.6) | Grades 1-3 of bilirubin (cancer patients [4]; over 24 hours, % of patients): 23.8% | alkaline phosphatase overall (cancer patients [4]; over 24 hours, % of patients): 57.7% | DLT (dose limiting toxicity) (cancer patients [5]; 24hr infusion every 3 weeks): hematotoxicity | MTD (maximum tolerated dose) (cancer patients [5]; 24hr infusion every 3 weeks): 1800 μg/m^2 | RD (recommended dose) (cancer patients [5]; 24hr infusion every 3 weeks): 1500 μg/m^2 | Grade 2 or greater hyperbilirubinemia (cancer patients [5]; [12]): 30% | Grade 3 or 4 transaminases, cycles (cancer patients [5]; at the RD, % of cycles): 38% | Grade 3 or 4 transaminases, patients (cancer patients [5]; at the RD, % of patients): 68% | sensitivity of progenitor cells (human progenitor cells): equal sensitivity of erythropoid and myeloid cells | MTD (cancer patients [6]; 3-hr infusion every 3 weeks): 1800 μg/M^2 | RD for Phase II studies (cancer patients [6]; 3-hr infusion every 3 weeks): 1650 μg/M^2 | increases of bilirubin G2 or greater (cancer patients [6]; [12]): 9% | Alk Phosph, NCI-CTC Grade 1 (cancer patients [7]; [13]): 115 (50.4) Number of patients (%) | Alk Phosph, NCI-CTC Grade 2 (cancer patients [7]; [13]): 15 (6.5) Number of patients (%) | Alk Phosph, NCI-CTC Grade 3 (cancer patients [7]; [13]): 4 (1.7) Number of patients (%) | Alk Phosph, NCI-CTC Grade 4 (cancer patients [7]; [13]): 2 (0.8) Number of patients (%) | Bilirubin, NCI-CTC Grade 1 (cancer patients [7]; [13]): 59 (25.8) Number of patients (%) | Bilirubin, NCI-CTC Grade 2 (cancer patients [7]; [13]): 38 (16.6) Number of patients (%) | Bilirubin, NCI-CTC Grade 3 (cancer patients [7]; [13]): 6 (2.6) Number of patients (%) | Bilirubin, NCI-CTC Grade 4 (cancer patients [7]; [13]): 0 ^ Number of patients (%) | Hemoglobin, NCI-CTC Grade 0-1 (cancer patients [7]; [13]): 132 (55) Number of patients (%) | Hemoglobin, NCI-CTC Grade 2 (cancer patients [7]; [13]): 80 (33.4) Number of patients (%) | Hemoglobin, NCI-CTC Grade 3 (cancer patients [7]; [13]): 23 (9.6) Number of patients (%) | Hemoglobin, NCI-CTC Grade 4 (cancer patients [7]; [13]): 4 (1.6) Number of patients (%) | Neutrophils, NCI-CTC Grade 0-1 (cancer patients [7]; [13]): 59 (24.5) Number of patients (%) | Neutrophils, NCI-CTC Grade 2 (cancer patients [7]; [13]): 42 (17.4) Number of patients (%) | Neutrophils, NCI-CTC Grade 3 (cancer patients [7]; [13]): 57 (23.6) Number of patients (%) | Neutrophils, NCI-CTC Grade 4 (cancer patients [7]; [13]): 85 (35.2) Number of patients (%) | Platelets, NCI-CTC Grade 0-1 (cancer patients [7]; [13]): 170 (69.1) Number of patients (%) | Platelets, NCI-CTC Grade 2 (cancer patients [7]; [13]): 26 (10.6) Number of patients (%) | Platelets, NCI-CTC Grade 3 (cancer patients [7]; [13]): 31 (12.6) Number of patients (%) | Platelets, NCI-CTC Grade 4 (cancer patients [7]; [13]): 14 (5.6) Number of patients (%) | SGOT/AST, NCI-CTC Grade 1 (cancer patients [7]; [13]): 17 (7.2) Number of patients (%) | SGOT/AST, NCI-CTC Grade 2 (cancer patients [7]; [13]): 29 (12.3) Number of patients (%) | SGOT/AST, NCI-CTC Grade 3 (cancer patients [7]; [13]): 117 (49.7) Number of patients (%) | SGOT/AST, NCI-CTC Grade 4 (cancer patients [7]; [13]): 58 (24.6) Number of patients (%) | SGPT/ALT, NCI-CTC Grade 1 (cancer patients [7]; [13]): 13 (5.5) Number of patients (%) | SGPT/ALT, NCI-CTC Grade 2 (cancer patients [7]; [13]): 19 (8.1) Number of patients (%) | SGPT/ALT, NCI-CTC Grade 3 (cancer patients [7]; [13]): 107 (45.7) Number of patients (%) | SGPT/ALT, NCI-CTC Grade 4 (cancer patients [7]; [13]): 87 (37.1) Number of patients (%) | Increased transaminases (grade 3-4), cycles (cancer patients [7]; 3 hour schedule, % of cycles): 58.3% | Grades 1-3 of bilirubin (cancer patients [7]; 3 hour schedule, % of patients): 45% | Increased transaminases (grade 3-4), patients (cancer patients [7]; 3 hour schedule, % of patients): 83.4% | alkaline phosphatase overall (cancer patients [7]; 3 hour schedule, % of patients): 58.6% | grade 1 alkaline phosphatase (cancer patients [7]; 3 hour schedule, % of patients): 50.4% | grade 2 alkaline phosphatase (cancer patients [7]; 3 hour schedule, % of patients): 6.5% | grade 3 alkaline phosphatase (cancer patients [7]; 3 hour schedule, % of patients): 1.7% | recommended dose (cancer patients [7]; 3 hour schedule, at present (reduced)): 1300 μg/m^2 | Grade 3-4 ALT (cancer patients [7]; 3 h schedule every three weeks): 82.8% | Grade 3-4 Bilirubin (cancer patients [7]; 3 h schedule every three weeks): 2.6% | Grade 3-4 Creatinine (cancer patients [7]; 3 h schedule every three weeks): 2.3% | Grade 3-4 Creatinine Kinase (cancer patients [7]; 3 h schedule every three weeks): 1.5% | Grade 3-4 Hemoglobin (cancer patients [7]; 3 h schedule every three weeks): 11.3% | Grade 3-4 Neutrophils (cancer patients [7]; 3 h schedule every three weeks): 58.3% | Grade 3-4 Platelets (cancer patients [7]; 3 h schedule every three weeks): 18.7% | Creatinine abnormalities, NCI-CTC Grade 1 (cancer patients [7]; [14]): 44 (20.1) | Creatinine abnormalities, NCI-CTC Grade 2 (cancer patients [7]; [14]): 10 (4.6) | Creatinine abnormalities, NCI-CTC Grade 3 (cancer patients [7]; [14]): 5 (2.3) | Creatinine abnormalities, NCI-CTC Grade 4 (cancer patients [7]; [14]): 0 ^ | grade 3 ALT (cancer patients [7]; [15]): 38% | grade 4 ALT (cancer patients [7]; [15]): 8.5%
